These compounds were tested on HSP70 (assay: HSP70 levels in Neuro 2a cells, ELISA). Settings: 10 nM, 48 hrs compound then 24 hrs GGTI-298.
Assay type: cell-based, mouse
Description: Mouse neuroblastoma 2a cells were cultured in DMEM with 10% FBS for 24 hrs. […] After 24 hrs cells were harvested and lysates were prepared and analyzed by ELISA for HSP70. Compound ID numbers in table refer to structures in Table 1 and Table 2.

Row | SMILES | HSP70 level, ELISA signal (absence of compounds normalized as 1.00)
1 | CC(C)=CCC/C(C)=C/CC/C(C)=C/COC(=S)NC1CC1 [Compound 9d, Cyclopropyl 2E, 6E-farnesyl thiocarbamate] | 1.05
2 | CC(C)=CCC/C(C)=C/CC/C(C)=C/COC(=S)NCCCN1CCOCC1 [Compound 9k, Morpholinyl-N-3′-propyl 2E, 6E-farnesyl thiocarbamate] | 1.13

Same assay, conditions: 100 nM, 48 hrs compound then 24 hrs GGTI-298

Row | SMILES | HSP70 level, ELISA signal (absence of compounds normalized as 1.00)
3 | CC(C)=CCC/C(C)=C/CC/C(C)=C/CC/C(C)=C/COC(=O)Nc1ccncc1 [Compound 39, (2E,6E,10E)-3,7,11,15-tetramethylhexadeca-2,6,10,14-tetraen-1-yl pyridin-4-ylcarbamate] | 1.15
4 | C=CCO/N=C(\C)CC/C=C(\C)CC/C=C(\C)CC/C=C(\C)CCC=C(C)C [Compound 109] | 1.12
5 | CCOC(=O)C(C)(C/C=C(\C)CC/C=C(\C)CC/C=C(\C)CCC=C(C)C)C(C)=O (stereo not shown) [Compound 78] | 1.00
6 | CC(C)=CCC/C(C)=C/CC/C(C)=C/CC/C(C)=C/C1=N[C@H](CC(C)C)C(=O)O1 [Compound 37c, (R)-4-isobutyl-2-((1E,5E,9E)-2,6,10,14-tetramethylpentadeca-1,5,9,13-tetraen-1-yl)oxazol-5(4H)-one] | 0.99
7 | CC(C)=CCC/C(C)=C/CC/C(C)=C/CC/C(C)=C/CNCCCOC(C)C [Compound 17d] | 1.01
8 | CCNC(=O)OC(C)CC/C=C(\C)CC/C=C(\C)CCC=C(C)C (stereo not shown) [Compound 20a, Ethyl 5E,9E-farnesyl prop-2-yl carbamate] | 0.91
9 | CC(C)=CCC/C(C)=C/CC/C(C)=C/CC/C(C)=C/CCC(=O)c1ccoc1 [Compound 69] | 0.90
10 | CC(C)=CCC/C(C)=C/CC/C(C)=C/CC/C(C)=C/COC(=O)Nc1cccnc1 [Compound 7z, 3′-Pyridyl 2E, 6E,10E-geranylgeranyl carbamate] | 0.96
11 | CC(C)=CCC/C(C)=C/CC/C(C)=C/CC/C(C)=C/CC/C(C)=N/OC1CCCCO1 (stereo not shown) [Compound 111] | 1.10
12 | CCCCCNC(=O)OC(C)CC/C=C(\C)CC/C=C(\C)CC/C=C(\C)CCC=C(C)C (racemic) [Compound 23b, 5E, 9E, 13E-Geranylgeranyl-rac-prop-2-yl n-pentyl carbamate] | 1.13
13 | CCCC(=O)CC/C=C(\C)CC/C=C(\C)CC/C=C(\C)CCC=C(C)C [Compound 73] | 0.99
14 | CC(C)=CCC/C(C)=C/CC/C(C)=C/CC/C(C)=C/COC(=S)Nc1ccccc1 [Compound 10k, Phenyl 2E,6E,10E-geranylgeranyl thiocarbamate] | 1.11
15 | CC(C)=CCC/C(C)=C/CC/C(C)=C/CC/C(C)=C/CC/C(C)=N/OCc1ccccc1 [Compound 113] | 1.01
16 | CCOC(=O)C(C/C=C(\C)CC/C=C(\C)CC/C=C(\C)CCC=C(C)C)C(=O)C12CC3CC(CC(C3)C1)C2 (stereo not shown) [Compound 71] | 1.03
17 | CCOC(=O)C1(C/C=C(\C)CC/C=C(\C)CC/C=C(\C)CCC=C(C)C)CCCC1=O (stereo not shown) [Compound 79] | 0.98
18 | CCC(=O)CC/C=C(\C)CC/C=C(\C)CCC=C(C)C [Compound 102] | 1.04
19 | CCOC(=O)C1(C/C=C(\C)CC/C=C(\C)CC/C=C(\C)CCC=C(C)C)CCCCCC1=O (stereo not shown) [Compound 76] | 0.75
20 | CC(C)=CCC/C(C)=C/CC/C(C)=C/CC/C(C)=C/COC(=O)NCc1ccco1 [Compound 7aa, 2′-Furanyl methyl 2E, 6E, 10E]-geranylgeranyl carbamate] | 1.05
21 | CC(C)=CCC/C(C)=C/CC/C(C)=C/CC/C(C)=C/COC(=O)Nc1ccc(C(=O)c2ccccc2)cc1 [Compound 7u, p-Benzoyl phenyl 2E, 6E, 10E-geranylgeranyl carbamate] | 1.03
22 | CC(C)=CCC/C(C)=C/CC/C(C)=C/CCC(=O)C(C)(C)C [Compound 100] | 1.14
23 | COCC(=O)C(C/C=C(\C)CC/C=C(\C)CC/C=C(\C)CCC=C(C)C)C(=O)OC (stereo not shown) [Compound 80] | 1.02
24 | CC(C)=CCC/C(C)=C/CC/C(C)=C/CC/C(C)=C/CCC(=O)C(C)(C)C [Compound 60] | 0.89

Same assay, conditions: 10uM, 48 hrs compound then 24 hrs GGTI-298

Row | SMILES | HSP70 level, ELISA signal (absence of compounds normalized as 1.00)
25 | CC(C)=CCC/C(C)=C/CC/C(C)=C/COS(=O)(=O)c1ccc(C)cc1 [Compound 6b, 2E, 6E-Farnesyl p-toluenesulfonate] | 1.18
26 | CNC(=O)OC/C=C(\C)CC/C=C(\C)CCC=C(C)C [Compound 42] | 1.25
27 | CC(C)=CCC/C(C)=C/CC/C(C)=C/CC/C(C)=C/COC(=O)Nc1cccc2ccccc12 [Compound 7r, 1′-Naphthyl 2E, 6E, 10E-geranylgeranyl carbamate] | 0.89
28 | CCCCCCNC(=S)OC/C=C(\C)CC/C=C(\C)CC/C=C(\C)CCC=C(C)C [Compound 10h, n-Hexyl 2E,6E,10E-geranylgeranyl thiocarbamate] | 1.58
29 | CC(C)=CCC/C(C)=C/CC/C(C)=C/COC(=S)NC1CC1 [Compound 9d, Cyclopropyl 2E, 6E-farnesyl thiocarbamate] | 0.95
30 | CCCCCN(C)C/C=C(\C)CC/C=C(\C)CC/C=C(\C)CCC=C(C)C [Compound 17b, N-Methyl-N-n-pentyl-2E,6E,10E-Geranylgeranyl amine] | 1.08
31 | CC(C)=CCC/C(C)=C/CC/C(C)=C/CC/C(C)=C/C1=N[C@H](C(C)C)CO1 [Compound 27e, (R)-4-isopropyl-2-((1E,5E,9E)-2,6,10,14-tetramethylpentadeca-1,5,9,13-tetraen-1-yl)-4,5-dihydrooxazole] | 1.11
32 | CC(C)=CCC/C(C)=C/CC/C(C)=C/CC/C(C)=C/c1ncc(C)o1 [Compound 16, 5-methyl-2-((1E,5E,9E)-2,6,10,14-tetramethylpentadeca-1,5,9,13-tetraen-1-yl)oxazole] | 0.89
33 | COc1cc(C(=O)OC/C=C(\C)CC/C=C(\C)CC/C=C(\C)CCC=C(C)C)cc(OC)c1OC [Compound 2h, 2E, 6E, 10E-Geranylgeranyl-3′,4′,5′-trimethoxybenzoate] | 0.94
34 | CC(C)=CCC/C(C)=C/CC/C(C)=C/CC/C(C)=C/COC(=O)Nc1ccc(C)cc1 [Compound 7o, P-Tolyl 2E, 6E, 10E-geranylgeranyl carbamate] | 1.15
35 | CC(C)=CCC/C(C)=C/CC/C(C)=C/COC(=S)NCCCN1CCOCC1 [Compound 9k, Morpholinyl-N-3′-propyl 2E, 6E-farnesyl thiocarbamate] | 0.97
36 | C=CCNC(=O)OC/C=C(\C)CC/C=C(\C)CC/C=C(\C)CCC=C(C)C [Compound 7k, Allyl 2E, 6E, 10E-geranylgeranyl carbamate] | 1.20
37 | CC(C)=CCC/C(C)=C/CC/C(C)=C/CC/C(C)=C/C1=N[C@@H](C(C)C)C(=O)O1 [Compound 37b, (S)-4-isopropyl-2-((1E,5E,9E)-2,6,10,14-tetramethylpentadeca-1,5,9,13-tetraen-1-yl)oxazol-5(4H)-one] | 0.89
38 | CCOC(=O)CNC(=O)OC/C=C(\C)CC/C=C(\C)CC/C=C(\C)CCC=C(C)C [Compound 7p, Ethoxycarbonyl methyl 2E, 6E, 10E-geranylgeranyl carbamate] | 1.00
39 | COc1ccc(C(=O)OC/C=C(\C)CC/C=C(\C)CC/C=C(\C)CCC=C(C)C)c(OC)c1 [Compound 2k, 2E, 6E, 10E-Geranylgeranyl-2′,4′-dimethoxybenzoate] | 0.88
40 | CC(C)=CCC/C(C)=C/CC/C(C)=C/CC/C(C)=C/CNC12CC3CC(CC(C3)C1)C2 [Compound 17e, N-Adamantyl-2E,6E,10E-Geranylgeranyl amine] | 1.06
41 | CC(C)=CCC/C(C)=C/CC/C(C)=C/CC/C(C)=C/COC(=O)NCc1ccccc1 [Compound 7l, Benzyl 2E, 6E, 10E-geranylgeranyl carbamate] | 1.10
42 | CC(C)=CCC/C(C)=C/c1nc(-c2cccnc2)no1 [Compound 35a, (E)-5-(2,6-dimethylhepta-1,5-dien-1-yl)-3-(pyridin-3-yl)-1,2,4-oxadiazole] | 1.08
43 | CC(C)=CCC/C(C)=C/c1nc(-c2ccncc2)no1 [Compound 35d, (E)-5-(2,6-dimethylhepta-1,5-dien-1-yl)-3-(pyridin-4-yl)-1,2,4-oxadiazole] | 1.05
44 | CCNC(=O)OC/C=C(\C)CC/C=C(\C)CCC=C(C)C [Compound 8h, Ethyl 2E, 6E-farnesyl carbamate] | 0.86
45 | CNC(=S)OC/C=C(\C)CC/C=C(\C)CC/C=C(\C)CCC=C(C)C [Compound 10a, Methyl 2E,6E,10E-geranylgeranyl thiocarbamate] | 1.17
46 | CC(C)=CCC/C(C)=C/CC/C(C)=C/COC(=O)Nc1ccc(C)cc1 [Compound 8l, p-Tolyl 2E, 6E-farnesyl carbamate] | 1.03
47 | CC(C)=CCC/C(C)=C/CC/C(C)=C/COC(=O)Nc1ccc(C(F)(F)F)cc1 [Compound 8n, p-Trifluoromethylphenyl 2E, 6E-farnesyl carbamate] | 1.02
48 | CC(C)=CCC/C(C)=C/c1nc(-c2ccccc2)no1 [Compound 35c, (E)-5-(2,6-dimethylhepta-1,5-dien-1-yl)-3-phenyl-1,2,4-oxadiazole] | 1.04
49 | CC(C)=CCC/C(C)=C/CC/C(C)=C/COC(=O)NC(C)C [Compound 8a, iso-Propyl 2E,6E-farnesyl carbamate] | 1.33

— US20150025077A1 (COYOTE PHARMACEUTICALS, INC., priority 2012, published 2015)
